The target of one assay is T1, GSK3α (Homo sapiens, UniProt P49840).
T1 construct: purchased PV3322/30387A
The assay can be described thus: Z′-Lyte TR-FRET kinase assay, GSK3α. Type of assay: biochemical. The settings on record: 400 nM substrate, 0.03 μg/ml GSK3α; read-out: ATP EC50 (ATP titration) GSK3α.

In the next assay the target is T2, GSK3β (Homo sapiens, UniProt P49841).
T2 construct: purchased PV3270/29135A
The assay can be described thus: Z′-Lyte TR-FRET kinase assay, GSK3β. The settings on record: 400 nM substrate, 0.25 μg/ml GSK3β; read-out: ATP EC50 (ATP titration) GSK3β. The class given is biochemical.

This note sets out measurements from patent US7619059B2, “Bimolecular optical probes” (Life Technologies Corporation, priority 2003, dated 2009).

pEC50: −log10 of the molar value.

T2 sequence (P49841 whole entry): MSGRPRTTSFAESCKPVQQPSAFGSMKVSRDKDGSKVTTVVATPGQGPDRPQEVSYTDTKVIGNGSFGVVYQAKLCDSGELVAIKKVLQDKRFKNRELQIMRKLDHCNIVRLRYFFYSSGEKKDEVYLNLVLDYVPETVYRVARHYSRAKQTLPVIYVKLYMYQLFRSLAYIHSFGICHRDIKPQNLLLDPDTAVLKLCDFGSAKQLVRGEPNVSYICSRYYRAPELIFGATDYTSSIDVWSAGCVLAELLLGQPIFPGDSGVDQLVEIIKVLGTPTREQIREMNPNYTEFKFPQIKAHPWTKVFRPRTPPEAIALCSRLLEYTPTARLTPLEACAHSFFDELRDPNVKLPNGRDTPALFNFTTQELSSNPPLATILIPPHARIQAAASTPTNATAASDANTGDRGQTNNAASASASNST
T1 sequence (P49840 whole entry): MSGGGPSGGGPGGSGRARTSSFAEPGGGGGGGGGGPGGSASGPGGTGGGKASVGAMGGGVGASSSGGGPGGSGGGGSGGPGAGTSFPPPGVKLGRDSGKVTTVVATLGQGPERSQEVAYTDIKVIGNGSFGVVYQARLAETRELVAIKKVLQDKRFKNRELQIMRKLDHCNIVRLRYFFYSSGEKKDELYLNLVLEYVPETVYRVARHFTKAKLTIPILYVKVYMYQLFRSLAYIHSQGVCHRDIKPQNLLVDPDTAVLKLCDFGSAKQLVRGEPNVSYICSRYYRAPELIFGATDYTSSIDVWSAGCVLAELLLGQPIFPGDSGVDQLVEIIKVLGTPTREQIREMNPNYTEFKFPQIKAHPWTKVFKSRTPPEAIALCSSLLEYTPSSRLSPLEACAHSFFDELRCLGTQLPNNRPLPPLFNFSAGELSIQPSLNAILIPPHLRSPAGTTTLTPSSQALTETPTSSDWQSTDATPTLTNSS
Description for GSK3α: To each well of a 384 well plate, 5 μl of 2X substrate/2X enzyme in 1X kinase reaction buffer was added. Then, 5 μl of 2X ATP in 1X kinase reaction buffer was added in order to initiate the kinase reaction. The plate was briefly mixed and the 10 μl kinase reaction was allowed to incubate for 60 minutes at room temperature. To each well, 5 μl of 3X chymotrypsin in development buffer B was added. The plate was briefly mixed and the 15 μl reaction was allowed to incubate for 60 minutes at room temperature. To each well, 5 μl of 4X Tb-labeled SA in stop buffer was added. The plate was briefly mixed and the 20 μl reactions read. […] The dichroic 2 mirror was used. A TR-FRET ratio=Em520/Em495 was calculated. An ATP titration was performed in order to determine the optimal amount of ATP to use per well for subsequent IC50 experiments. […] The assay was carried out using the general assay procedure listed above except with the following modification: a 2X ATP titration series was diluted 2 fold in 1X kinase buffer. […] The three fold titration of compounds was performed in a separate 384 well plate in 2X substrate (800 nM, therefore 1X=400 nM)/2X ATP (20 μM, therefore 1X=10 μM) in 1X kinase buffer/3% DMSO. Then 5 μl of the titration series of each compound was added to the appropriate wells in the 384 well assay plate. […]

For `Nc1ncnc2c1ncn2[C@@H]1O[C@H](COP(=O)(O)OP(=O)(O)OP(=O)(O)O)[C@@H](O)[C@H]1O` [ATP], the pEC50 on GSK3α and at GSK3β was around 5.00 in each case.
